Consider four compounds from patent publication US8252841B2, “Methods of inhibiting bacterial virulence and compounds relating thereto” (priority 2007, dated 2012).

Molecules are shown by their SMILES. Several values for one entry are separate records, joined by “and”; a condition that tells them apart may be missing. Equal entries are not always repeated. Entries after “also recorded” stand apart in the source; their conditions may differ.

Series [1] deals with S. typhimurium strain SL1344. Also on record: species or system mice (129×1/SvJ). Particulars: mouse, in vivo.
Series [2] deals with F. tularensis strain SCHU S4. The conditions noted are these: mouse, in vivo.
For series [3], the system named is EHEC virulence genes (ler, eae, flhDC, stx2A). Type of series: cell-based, enterohemorrhagic E. coli (EHEC).
Series [4] relates to EHEC strain 8624. The series can be described thus: Western blot of EHEC secreted proteins EspA and EspB. Type of series: cell-based, enterohemorrhagic E. coli (EHEC). The conditions noted are these: 50 μM epinephrine plus 5 nM or 5 pM LED209. Background: Immunoblotting shows a protein as a band on a membrane.
In series [5] the target is T1, QseC (Escherichia coli O157:H7, UniProt Q8X524).
T1 construct: His (C); made in house; host or cells: E. coli (arabinose-induced, pVS155), nickel column purification
T1 sequence (Q8X524 whole entry): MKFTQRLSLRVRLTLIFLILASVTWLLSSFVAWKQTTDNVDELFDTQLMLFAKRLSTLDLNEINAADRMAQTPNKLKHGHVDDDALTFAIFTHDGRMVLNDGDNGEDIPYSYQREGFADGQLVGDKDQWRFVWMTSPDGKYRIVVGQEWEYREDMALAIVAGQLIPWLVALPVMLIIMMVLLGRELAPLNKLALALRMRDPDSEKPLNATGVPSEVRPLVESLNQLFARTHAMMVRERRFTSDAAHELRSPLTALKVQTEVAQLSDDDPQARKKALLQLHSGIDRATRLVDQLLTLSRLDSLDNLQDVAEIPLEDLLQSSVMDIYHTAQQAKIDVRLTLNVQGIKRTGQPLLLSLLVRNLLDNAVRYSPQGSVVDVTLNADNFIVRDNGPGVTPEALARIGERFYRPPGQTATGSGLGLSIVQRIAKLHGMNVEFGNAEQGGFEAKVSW
The series can be described thus: Binding of tritiated norepinephrine to QseC in liposomes. Set-up: species or system E. coli. Particulars: 5 μM tritiated NE.

The next series relates to F. tularensis strain LVS. It counts as cell-based, Francisella tularensis.
Series [6] relates to Salmonella typhimurium strain SL1344. Type of series: cell-based.
For series [7], the system named is β1, β2 and β3 adrenergic receptors. The series can be described thus: Live-cell intracellular cAMP (EPAC-based BRET reporter) in HEK293 cells. Set-up: species or system human. (Bioluminescence resonance energy transfer reports proximity on the nanometre scale.)
Series [8] is described as follows: Toxicology studies in mice. Particulars: 20 mg/kg oral gavage daily for 5 days.
Series [9] has as its system F. tularensis SCHU S4 in J774 murine macrophages. Type of series: cell-based, Francisella tularensis.
Series [10] relates to EHEC strain 8624. It counts as cell-based, enterohemorrhagic E. coli (EHEC).
The test system of series [11] is F. tularensis virulence genes. Type of series: cell-based, Francisella tularensis.
Another series deals with sifA virulence gene. It counts as cell-based, Salmonella typhimurium.
Series [12] concerns bacterial cells (strain MCAmp). The series can be described thus: Secondary screen with bla::lacZ chromosomal reporter to eliminate toxic compounds and general transcription inhibitors.
For series [13], the target named is T1, QseC. Briefly: QseC autophosphorylation in liposomes. Type of series: biochemical, E. coli.
The next series relates to EHEC. Also on record: species or system New Zealand White rabbits. The conditions noted are these: rabbit, in vivo.
The test system of another series is EHEC AE lesion formation. Briefly: Fluorescein actin staining (FAS) test, AE lesion formation on HeLa cells. Type of series: cell-based, enterohemorrhagic E. coli (EHEC).
Series [14] can be described thus: Pharmacokinetic analysis in mice.
[15] abbreviates: CD-1 female mice, 20, 10 and 5 mg/kg IV bolus.

As to `CC(=O)Nc1ccc(S(=O)(=O)Nc2ccccc2)cc1`, the melting point (as a rule, the temperature, or range, at which the solid turns liquid) was 209 to 210 °C.

As to `O=S(=O)(Nc1ccccc1)c1ccc(NC(=S)Nc2ccccc2)cc1` [LED209, N-phenyl-4-[[(phenylamino)thioxomethyl]amino]benzenesulfonamide], in series [1], the “reduction of S. typhimurium cfus recovered from spleens and livers” value is listed as about 10 fold; the “survival of infected mice 24 hours after infection” value is listed as 80%; the “survival of infected mice up to day 12” value is given as 20%. In series [2] (female, C3H HeN, po, 20 mg/kg), the “deaths of mice treated with LED209 alone” value was “none of the mice treated with LED209 alone died”. Besides, the “survival of infected mice at 175 hours post-infection” value in [2] was 60% and 75%. Also, in series [2] (po, 20 mg/kg), the overt toxicity result was “no overt toxicity” and the “survival of infected mice 9 days post-infection” value came out at 80%. Also, in [3], the “QseC-dependent virulence gene expression in response to AI-3” value was “inhibited”, the “QseC-dependent virulence gene expression in response to epinephrine” value is recorded as “inhibited”, the “expression of the stxAB genes” value was “decreases” and the “trigger the EHEC SOS response” value is listed as “does not”. In addition, the “secretion of EspA and EspB” value in the series with EHEC strain 8624 [4] is on record as “inhibited the secretion”. In addition, the “binding of norepinephrine to QseC” value on QseC [5] (5 pM LED209) is recorded as “inhibits binding; also recorded: directly antagonized”. The “binding of norepinephrine to QseC” value on QseC [5] (5 fM LED209) is recorded as “does not”. Further, the F. tularensis growth entry with F. tularensis strain LVS is recorded as “does not hinder growth”. For the same compound, the “S. typhimurium growth in vitro” value in series [6] is given as “does not hinder growth; also recorded: did not influence”. For the same compound, the “block of activation by β-adrenergic-specific agonists (cAMP generation)” value in [7] (5 μM with dobutamine, terbutaline or BRL37344) was “nor does it block the activation”. For the same compound, the “activation of β adrenergic receptors (cAMP generation)” value in series [7] (5 μM, no agonist) is on record as “does not activate any of the 3 classes of β adrenergic receptors”. The “interference with adrenergic signaling” value in series [7] (live cell-based assays) is reported as “does not interfere with mammalian adrenergic signaling; also recorded: not influence signaling”. The “pathology of duodenum, colon, liver, kidney, spleen and heart sections” value in [8] is “did not reveal any observable pathology”. In series [8] (vs vehicle), the mice weights entry is given as “no significant differences” and the organ weights entry was “no significant differences in the organ weights”. Moreover, the “reduction of F. tularensis SCHU-S4 recovered from macrophages” value in series [9] stood at 10 fold. The EHEC growth result with EHEC strain 8624 [10] was “does not hinder growth; also recorded: does not kill or hinder EHEC growth”. The “expression of F. tularensis virulence genes, including qseC” value in series [11] was “decreased”. The “expression of the sifA virulence gene” value in the series with sifA virulence gene is reported as “diminished”. Besides, the “toxicity against bacterial cells” value in series [12] is reported as “no toxicity against bacterial cells”. Further, the QseC autophosphorylation entry at QseC [13] (in response to 50 μM epinephrine, 5 pM LED209) is listed as “inhibited”. In the series with EHEC, the “EHEC colonization of the intestine” value is reported as “modest (and non-statistically significant) reduction”. In addition, in the series with EHEC (20 mg/kg), the “EHEC colonization, colon” value was “only a mild non-statistically significance difference”; the “EHEC colonization, ileum and cecum” value is “no differences between treated and untreated animals”. Moreover, the “EHEC AE lesion formation on cultured epithelial cells” value in the series with EHEC AE lesion formation (5 pM) was “abolished”. In addition, the “AE lesions (pedestals)” value in the series with EHEC AE lesion formation (5 μM and 5 pM) is given as “There are no pedestals”. In addition, in series [14] (setting [15]), the AUC versus dose result is recorded as “increases proportionally with dose” and the linearity of pharmacokinetics entry is recorded as “linear”. Besides, the bioavailability (as a rule, dose-corrected exposure relative to a reference, in per cent) in [14] (female, CD-1, mouse, plasma, oral, 20 mg/kg) was about 70%. In series [14] (mice), the “oral bioavailability (in words)” value is “orally bioavailable”.

With `Cc1ccc(N(CC2=NCCN2)c2cccc(O)c2)cc1` [phentolamine, reference compound], on QseC [5] (50 μM adrenergic antagonist), the “binding of norepinephrine to QseC” value is on record as “inhibited; also recorded: antagonizes this binding”. At QseC [13] (adrenergic antagonist), the QseC autophosphorylation result is listed as “block QseC autophosphorylation”.

In the case of `CC(C)NCC(O)COc1cccc2ccccc12` (centres unmarked) [propranolol, reference compound], on QseC [5] (50 μM adrenergic antagonist), the “binding of norepinephrine to QseC” value is “has no effect on QseC”.
